# Bridge positions count the residues as written; N and C are the ends. Peptide text beside a SMILES is read from it. I, II: the chains in the order shown.
# Assays:
# [1] = rabbit, in vivo; cited from earlier work
# S. aureus (ATCC 29213) = test: S. aureus viability estimated from colonies formed; format: cell-based, Staphylococcus aureus; conditions: Figure 1; two hours at 37°C; significant with peptide concentrations of 10^-12 to 10^-4 M
# Description: (§1) Cultures of S. aureus (ATCC 29213) were obtained from the collection of the Department of Microbiology, Ospedale Maggiore di Milano. […] Cells were then washed in cold distilled water and diluted with HBSS to a concentration of 100 organisms/ml. One-milliliter aliquots were dispensed on blood agar plates and incubated for 24 hours at 37°C. Viability of the microorganisms was estimated from the colonies formed. In another set of experiments, 500 units of urokinase, a S. aureus growth enhancer, were also incubated with the bacteria (10^5/100ml) for four hours at 37°C in a shaking water bath together with the peptides.
# C. albicans [2] = conditions: for ability of C albicans to form colony: Figure 3, 10^-12 to 10^-4 M, p<0.01 vs. control; for C. albicans viability: Figure 4, procedures of Example II
# Description: (§2) Clinical isolates of C. albicans were also obtained from the collection of the Department of Microbiology, Ospedale Maggiore di Milano. Cultures of C. albicans were maintained on Sabouraud's agar slants and periodically transferred to Sabouraud's agar plates and incubated for 48 hours at 28°C. To prepare stationary growth-phase yeast, a colony was taken from the agar plate, transferred into 30 ml of Sabouraud-dextrose broth, and incubated for 72 hours at 32°C. Cells were centrifuged at 1000xg for ten minutes, and the pellet was washed twice with distilled water. Cells were counted and suspended in Hank's balanced salt solution ("HBSS") to the desired concentration.
# (§3) Cells were then washed in cold distilled water and diluted with HBSS to a concentration of 100 organisms/ml. One-milliliter aliquots were then dispensed on blood agar plates and incubated for 48 hours at 37°C. The organism's viability was estimated from the number of colonies formed.
# (§4) The reactions were stopped after three minutes by the addition of ice cold ethanol. cAMP levels were measured in duplicates using a commercial enzyme immunoassay kit (Amersham, United Kingdom) after extraction-via the liquid-phase method according to the manufacturer's instructions. […] The effects of forskolin and ddAdo on the ability of C. albicans to form colonies were determined according to the procedures described in Example II.
# C. albicans [3] = test: C. albicans viability estimated from colonies formed; format: cell-based, Candida albicans; conditions: Figure 9; ddAdo 25, 50 and 100 x 10^-5 M for two hours, then peptide two additional hours
# Description: as §2, §3, §4
# C. albicans [4] = test: C. albicans germ tube formation induced by horse serum; format: cell-based, Candida albicans; conditions: peptide 10^-6 M, 60 minutes at 37°C after horse serum induction
# Description: C. albicans from stationary phase cultures were washed twice with distilled water and suspended in HBSS to a final concentration of 2 x 10^6/ml. Hyphal growth was induced by addition of 10% inactivated horse serum (GIBCO/ BRL, Paisley, Great Britain) to yeast incubated for 45 minutes at 37°C with continuous shaking. […] The percentage of filamentous cells was evaluated under a light microscope with the aid of a hemocytometer. Experiments were run in triplicates and at least 200 cells were scored. Photomicrographs were taken with a MC100 camera attached to an Axioskop Zeiss microscope.
# C. albicans [5] = test: killing of opsonized C. albicans by human neutrophils; format: cell-based, Candida albicans; conditions: Figure 6; 10^-12 to 10^-4 M; p<0.01
# Description: Venous blood (20 ml) from healthy volunteers was anticoagulated with heparin. Neutrophils were then isolated using dextran sedimentation and centrifugation with Ficoll-Hypaque (Sigma Chemical Co., St. Louis, Missouri, USA). Erythrocytes were lysed via hypotonic shock with the resulting neutrophils representing at least 97% of the cell suspension. Cell viability; estimated by trypan blue exclusion, was greater than 98%. Neutrophils were resuspended in HBSS for the experiments. […] ID. NO. 4)or α-MSH (11-13) (SEQ. ID. […] After incubation, the culture tubes were placed on ice to stop growth, and extracellular organisms were washed twice with centrifugation at 1000-x g at 4°C. A 2.5% sodium deoxycholate solution was added to the suspension, and the tubes were shaken for five minutes. Cold distilled water was then added to obtain a suspension of 10^6 cells/ml. Two 1/100 serial dilution in HBSS were made to obtain a final suspension of 100 cells/ml. One-milliliter aliquots were then dispensed on blood agar plates and incubated for 48 hours at 37°C. Colony forming units were counted at the end of the incubation period with experiments running in triplicates and repeated using blood from five different donors.
# HIV-1 = conditions: Figure 11; 10^-5M; induced by IL-6, IL-10, PMA and in crowding condition
# Source text: Chronically HIV-1 infected promonocytic U1 cell line is an in vitro model of latent HIV infection in monocytes. These cells carry two integrated proviral copies of HIV, and constitutive expression of HIV is very low. Viral replication, however, as measured by RNA transcription , p24 antigen, or reverse transcriptase release, can be activated with different stimuli such as TNF-α, IL-6, IL-10, PMA or crowding of cells.
# Crowding was achieved by seeding U 1 cells at a density of 2x10^5/ml and maintaining them in culture at 37°C in 5% CO2 without changing media for seven days. Cultures activated with cytokines or PMA were maintained for only 48 hours. Supernatants were then removed by centrifugation and assayed for p24 antigen using commercially available ELISA kits from Cellular Products, Inc. in Buffalo, NY, USA. Reverse transcriptase releases were also measured using a commercially available kit, ELISA Retrosys RT assay from Innovagen, Lund, Sweden.
# S. aureus = test: urokinase induced growth of S. aureus; format: cell-based, Staphylococcus aureus; conditions: Figure 2; peptide 10^-6M; 500 units of urokinase, four hours at 37°C
# Description: as §1
# C. albicans [6] = test: cAMP content of permeabilized C. albicans (enzyme immunoassay); format: cell-based, Candida albicans; conditions: Figure 7; 10^-6 M, three minutes; same order of magnitude as equimolar forskolin
# Description: ID. NO. 4), (11-13) (SEQ. ID. NO. 1), or forskolin, an agent known to increase intracellular cAMP. The reactions were stopped after three minutes by the addition of ice cold ethanol. cAMP levels were measured in duplicates using a commercial enzyme immunoassay kit (Amersham, United Kingdom) after extraction-via the liquid-phase method according to the manufacturer's instructions.
# HIV-1 RNA = test: Northern Blot analysis of HIV-1 RNA in PMA stimulated U1 cells; format: cell-based; conditions: Figure 12
# NF-κB = NF-κB binding activity in nuclear extracts of U1 cells (gel shift); format: cell-based, human
# Description: For the determination of specific bands, nuclear extracts were first incubated with 100 fold excess unlabeled probe for five minutes, before incubation with a labeled probe. […] The gels were dried and autoradiographed.
molecule,measurement,setting,value
8-13 sequence: α-MSH 8-13 sequence (RWGKPV),antipyretic potency relative to the 11-13 sequence,[1],greater than that of the 11-13 sequence
9-13 sequence: α-MSH 9-13 sequence (WGKPV),antipyretic potency relative to the 11-13 sequence,[1],almost devoid of activity
10-13 sequence: α-MSH(11-13) with addition of glycine to form the 10-13 sequence (GKPV),antipyretic potency relative to the 11-13 sequence,[1],slightly decreased potency
CC(=O)N[C@@H](CSSC[C@H](NC(C)=O)C(=O)N[C@@H](CCCCN)C(=O)N1CCC[C@H]1C(=O)N[C@H](C(N)=O)C(C)C)C(=O)N[C@@H](CCCCN)C(=O)N1CCC[C@H]1C(=O)N[C@H](C(N)=O)C(C)C [KPV dimer] (I: Ac-CKPV-NH2 / II: Ac-CKPV-NH2; disulfide I:1-II:1),S. aureus colony formation,S. aureus (ATCC 29213),inhibited S. aureus colony formation
same,ability of C albicans to form colony,C. albicans [2],greatly reduced the ability of C albicans to form colony
"C[C@H]1O[C@@H](n2cnc3c(N)ncnc32)C[C@@H]1O [ddAdo, dideoxyadenosine]",effect of ddAdo on the growth inhibition of C. albicans by α-MSH (1-13) and (11-13),C. albicans [3],reverse the effect
"CSCC[C@H](NC(C)=O)C(=O)N[C@@H](CCC(=O)O)C(=O)N[C@@H](Cc1c[nH]cn1)C(=O)N[C@@H](Cc1ccccc1)C(=O)N[C@@H](CCCNC(=N)N)C(=O)N[C@@H](Cc1c[nH]c2ccccc12)C(=O)NCC(N)=O [α-MSH (4-10), MEHFRWG]",inhibition of colony forming units (CFU),C. albicans [2]; 48 h,approximately 50%
CC(=O)N[C@@H](Cc1c[nH]cn1)C(=O)N[C@@H](Cc1ccccc1)C(=O)N[C@@H](CCCNC(=N)N)C(=O)N[C@@H](Cc1c[nH]c2ccccc12)C(=O)NCC(=O)N[C@@H](CCCCN)C(=O)N1CCC[C@H]1C(=O)N[C@H](C(N)=O)C(C)C [α-MSH (6-13)] (Ac-HFRWGKPV-NH2),reduction in the number of filamentous cells,C. albicans [4],approximately 50%
"CC(=O)N[C@@H](CCCCN)C(=O)N1CCC[C@H]1C(=O)N[C@H](C(N)=O)C(C)C [α-MSH (11-13), KPV] (Ac-Lys-Pro-Val-NH2)",neutrophil killing of C. albicans,C. albicans [5],enhanced neutrophil killing of C. albicans
same,reverse transcriptase release from U1 cells,HIV-1,inhibited
same,S. aureus colony formation,S. aureus (ATCC 29213),inhibited S. aureus colony formation
same,growth enhancing effect of urokinase on S. aureus,S. aureus,significantly countered the growth enhancing effect of urokinase
same,reduction in the number of filamentous cells,C. albicans [4],54-58%
same,cAMP content in the C. albicans,C. albicans [6],enhanced cAMP content
same,transcription of both spliced and unspliced HIV-1 RNA,HIV-1 RNA,inhibited
same,NF-κB activation,"NF-κB; Figure 14, TNF-α (20ng/ml) stimulated U1 cells, four hours, peptide 10^-5 M",significantly reduced NF-κB activation
same,NF-κB activation,NF-κB; resting cells,did not alter NF-κB activation
same,ability of C albicans to form colony,C. albicans [2],greatly reduced the ability of C albicans to form colony
same,growth of C. albicans,"C. albicans [2]; Figure 8, relative to control, p<0.01",significantly inhibited the growth of C. albicans
"ACTH (1-39): adrenocorticotropic hormone (1-39), prepared by solid-phase peptide synthesis (SYSMEHFRWGKPVGKKRRPVKVYPNGAEDESAEAFPLEF; Corticotropin; UniProt P01189 138-176, looked up) [reference compound]",C. albicans viability,C. albicans [2],did not reduce C. albicans viability
ACTH (18-39): ACTH fragment (18-39) (CLIP) [reference compound],C. albicans viability,C. albicans [2],did not reduce C. albicans viability
"[Nle^4,D-Phe^7]- α-MSH",potency in reducing fever relative to the parent peptide,[1],approximately ten times more potent

# From patent EP1433485B1, “Alpha-MSH derived peptides for treating uro-genital conditions” (MSH Pharma, Inc., priority 1999, dated 2009)
